The values that follow come from US9169231B2, “Anti-obesity agent comprising compound containing benzotropolone ring” (SUNTORY HOLDINGS LIMITED, priority 2009, dated 2015).

Common to all, as to assay type: biochemical
The target of experiment [1] is T1, porcine pancreatic lipase (Sus scrofa, UniProt P00591).
T1 construct: purchased Sigma-Aldrich Corp
T1 sequence (P00591 1-450): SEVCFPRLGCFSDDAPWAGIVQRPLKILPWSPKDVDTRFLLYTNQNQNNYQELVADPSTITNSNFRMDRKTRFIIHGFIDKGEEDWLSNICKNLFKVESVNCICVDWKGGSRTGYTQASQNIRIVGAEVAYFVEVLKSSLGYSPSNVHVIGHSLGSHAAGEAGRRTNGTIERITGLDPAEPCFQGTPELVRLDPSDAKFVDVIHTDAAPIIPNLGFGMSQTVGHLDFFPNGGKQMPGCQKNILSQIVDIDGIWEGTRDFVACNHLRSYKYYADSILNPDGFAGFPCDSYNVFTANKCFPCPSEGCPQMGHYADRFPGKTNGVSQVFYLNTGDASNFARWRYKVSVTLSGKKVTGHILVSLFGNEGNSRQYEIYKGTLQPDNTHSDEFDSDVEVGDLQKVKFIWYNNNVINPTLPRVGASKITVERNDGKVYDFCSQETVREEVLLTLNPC
Put plainly: Measurement of lipase inhibitory activity (Example 6; 4-MUO substrate, fluorescence). The protocol:
The measurement of lipase activity was performed by using as a substrate the oleate ester of fluorescent 4-methylumbelliferone (4-MUO; Sigma-Aldrich Corp.) to measure the fluorescence of 4-methylumbelliferone produced by a reaction. […] The following were subjected to an enzymatic measurement: the substrate 4-MUO which was dissolved into a 0.1M DMSO solution followed by dilution of the solution 4000-fold with the above buffer; and as a lipase, porcine pancreatic lipase (Sigma-Aldrich Corp.) which was prepared as a 400 U/ml solution by using the above buffer likewise.
(§1) An enzymatic reaction was initiated by the following steps under 25° C. condition: adding to a 96-well microplate 50 μl of a 4-MUO buffer solution and 25 μl of distilled water (or an aqueous sample solution) for each well; mixing them; and then adding 25 μl of a lipase buffer solution to each well. After a 30-minute reaction, 100 μl of a 0.1M citric acid buffer (pH4.2) was added to terminate the reaction, and the fluorescence of 4-methylumbelliferone (excitation wavelength: 355 nm, fluorescence wavelength: 460 nm) produced by the reaction was measured with a fluorescence plate reader (Fluoroskan Asent CF from Labsystems, Inc.)

The target in experiment [2] is alfa-glucosidase. Put plainly: Measurement of alfa-glucosidase inhibitory activity (Example 11; p-nitrophenyl-alfa-D-glucopyranoside, A405). The procedure: A […] sodium phosphate buffer was prepared by mixing a 0.1M NaH2PO4-2H2O and a 0.1M Na2HPO4.12H2O and adjusting the mixture to pH7.0, and thereto 2 g/L of bovine serum albumin (Nacalai Tesque, Inc., F-V, pH5.2, 96% purity) and 0.2 g/L of NaN3 (Nacalai Tesque, Inc., a special grade reagent) were added. To prepare an enzyme solution, alfa-glucosidase (Wako Pure Chemical Industries, Ltd., yeast-derived, 100 units/mg) was dissolved in the above buffer so as to achieve 0.5 units/mg protein/ml (100 μg/20 ml). To prepare a substrate solution, p-nitrophenyl-alfa-D-glucopyranoside (Nacalai Tesque, Inc., a special grade reagent) was dissolved in the above buffer so as to achieve 5 mM concentration (7.525 mg/5 ml).
Among the samples used for the assays, epigallocatechin-3-O-gallate (Compound 13: EGCG), a positive control, was a product from Wako Pure Chemical Industries, Ltd., and Compounds 1, 3, 4, 5, 11, 12, 14, and 15 were products that were synthesized and purified in Example 1, 2, or 7.
These samples were adjusted so as to obtain 10 mg/ml of DMSO and the solution was diluted 2-fold in 6 steps. Using a 96-well microplate, 45 μL of the enzyme solution was added to 10 μL of the sample solution. After preincubation at 37° C. for 5 minutes, 45 μL of the substrate solution was added and absorbance at 405 nm (A405 nm) was measured. After incubation at 37° C. for 5 minutes, the absorbance A405 nm was measured. Percent inhibition was calculated as a difference in A405 nm from a solution in which only DMSO was added as a control instead of a sample, and two consecutive measurements were performed for activity of each compound.

The target of experiment [3] is T2, porcine pancreatic lipase (Type VI-S) (Sus scrofa, UniProt P00591).
T2 construct: purchased Sigma-Aldrich Corp. Type VI-S
T2 sequence (P00591 1-450): T1 sequence (P00591 1-450)
Nature of the experiment: Measurement of lipase activity (Example 10; 4-MUO substrate 7.5 μM, increased DMSO). The settings on record: Example 10 method; for IC50: substrate 7.5 μM, 25° C., 30-minute reaction, read-out: Lipase Inhibitory Activity per Mole IC50. The procedure:
The measurement of lipase activity was performed by using as a substrate the oleate ester of fluorescent 4-methylumbelliferone (4-MUO; Sigma-Aldrich Corp.) to measure the fluorescence of 4-methylumbelliferone produced by a reaction. In the measurement, 13 mM Tris-HCl (pH8.0) containing 150 mM NaCl and 1.36 mM CaCl2 was used as a buffer. The following were subjected to an enzymatic measurement: the substrate 4-MUO which was dissolved into a 0.01M DMSO solution followed by dilution of the solution 667-fold with the above buffer; and as a lipase, porcine pancreatic lipase (Sigma-Aldrich Corp.: Type VI-S) which was prepared as a 400 U/ml solution by using the above buffer likewise.
as §1, with “μl of 4-MUO buffer” for “μl of a 4-MUO buffer”, “water (or aqueous sample” for “water (or an aqueous sample”, “each well. […] After a” for “each well. After a”, “μl of 0.1M citric” for “μl of a 0.1M citric”, “from Labsystems, Inc.).” for “from Labsystems, Inc.)”
The inhibitory activities of test samples were determined as IC50 (μM), a sample […] which produces 50% inhibition, relative to the activity of a control (distilled water).

Where [4] appears, read: Example 6 method, substrate 12.5 μM, 25° C., 30-minute reaction, read-out: Lipase Inhibitory Activity per mole IC50.

Where two headings read alike, the source gives them in different places.

Turning to `O=C(O[C@@H]1Cc2c(O)cc(O)cc2O[C@@H]1c1cc(O)c(=O)c2c(O)c(O)cc([C@@H]3Oc4cc(O)cc(O)c4C[C@@H]3O)c2c1)c1cc(O)c(=O)c2c(O)c(O)cc([C@H]3Oc4cc(O)cc(O)c4C[C@H]3O)c2c1` (stereo in doubt) [Compound 6, theadibenzotropolone A], the IC50 in experiment [1] (setting [4]) came to 0.178 µM.
The same measure, in the same setting: the same measure for `O=C(O[C@@H]1Cc2c(O)cc(O)cc2O[C@@H]1c1cc(O)c(=O)c2c(O)c(O)cc([C@@H]3Oc4cc(O)cc(O)c4C[C@H]3OC(=O)c3cc(O)c(O)c(O)c3)c2c1)c1cc(O)c(=O)c2c(O)c(O)cc([C@H]3Oc4cc(O)cc(O)c4C[C@H]3OC(=O)c3cc(O)c(O)c(O)c3)c2c1` (stereo in doubt) [Compound 7, theaflavin digallate trimer 1 (TFdiGA-tri1)]: 0.135 µM; for `O=C(O[C@@H]1Cc2c(O)cc(O)cc2O[C@@H]1c1cc(O)c(=O)c2c(O)c(O)cc([C@@H]3Oc4cc(O)cc(O)c4C[C@H]3OC(=O)c3cc(O)c(=O)c4c(O)c(O)cc([C@H]5Oc6cc(O)cc(O)c6C[C@H]5OC(=O)c5cc(O)c(O)c(O)c5)c4c3)c2c1)c1cc(O)c(O)c(O)c1` (stereo in doubt) [Compound 8, theaflavin digallate trimer 2 (TFdiGA-tri2)]: 0.138 µM.
`O=c1c(O)cccc2cc(O)c(O)c(O)c12` [Compound 1, purprogallin]: the IC50 in experiment [1] (setting [4]) stood at 0.413 µM; in experiment [2] (37° C., 5 minutes incubation), 1240 µM.
In experiment [1], `O=C(O)c1cc(O)c(=O)c2c(O)c(O)c(O)cc2c1` [Compound 2, purprogallin carboxylic acid] showed an IC50 of 4.16 µM.
Consider `O=C(O[C@@H]1Cc2c(O)cc(O)cc2O[C@@H]1c1cc(=O)c(O)c2c(O)c(O)c(O)cc2c1)c1cc(O)c(O)c(O)c1` [Compound 4, epitheaflagallin-3-O-gallate, reference compound], for which the IC50 in experiment [3] was found to be 0.125 µM; in experiment [2] (37° C., 5 minutes incubation), 180 µM.
Turning to `O=C(O[C@@H]1Cc2c(O)cc(O)cc2O[C@@H]1c1ccc(O)c(O)c1)c1cc(O)c(=O)c2c(O)c(O)cc([C@H]3Oc4cc(O)cc(O)c4C[C@H]3OC(=O)c3cc(O)c(O)c(O)c3)c2c1` [Compound 5, theaflavate A], the IC50 in experiment [1] (setting [4]) turned out to be 0.202 µM; in experiment [2] (37° C., 5 minutes incubation), 116 µM.
With `O=C(O)c1cc(O)c(=O)c2c(O)c(O)cc([C@H]3Oc4cc(O)cc(O)c4C[C@H]3O)c2c1` [Compound 9, epitheaflavic acid], the IC50 in experiment [1] (setting [4]) was 4.63 µM.
With `O=c1c(O)cccc2c([C@H]3Oc4cc(O)cc(O)c4C[C@H]3O)cc(O)c(O)c12` [Compound 10, theaflavanin], in experiment [1] (setting [4]), the IC50 was determined as 0.984 µM.
Turning to `O=C(O)c1cc(O)c(=O)c2c(O)c(O)cc([C@H]3Oc4cc(O)cc(O)c4C[C@H]3OC(=O)c3cc(O)c(O)c(O)c3)c2c1` [Compound 11, epitheaflavic acid-3-O-gallate], the IC50 amounted to 0.266 µM in experiment [1] (setting [4]) and 287 µM in experiment [2] (37° C., 5 minutes incubation).
As for `O=C(O[C@@H]1Cc2c(O)cc(O)cc2O[C@@H]1c1ccc(O)c(O)c1)c1cc(O)c(=O)c2c(O)c(O)c(O)cc2c1` [Compound 12, (2R,3R)-2-(3,4-dihydroxyphenyl)-5,7-dihydroxychroman-3-yl2,3,4,6-tetrahydroxy-5-oxo-5H-benzo[7]annulen-8-carboxylate], the IC50 is 0.207 µM in experiment [1] (setting [4]); 0.096 µM in experiment [3]; 159 µM in experiment [2] (37° C., 5 minutes incubation). Also, the “Lipase inhibitory activity (in words, compared with EGCG)” value in experiment [3] is on record as “stronger activity than a positive control, EGCG”. Also, the “alfa-glucosidase inhibitory activity (in words)” value in experiment [2] is recorded as “particularly strong activity”.
For the compound `O=C(O[C@@H]1Cc2c(O)cc(O)cc2O[C@@H]1c1cc(O)c(O)c2c(=O)c(O)cccc12)c1cc(O)c(O)c(O)c1` [Compound 14, theaflavanin 3-O-gallate], in experiment [3], the “Lipase inhibitory activity (in words, compared with EGCG)” value is “stronger activity than a positive control, EGCG” and the IC50 is 0.168 µM. Also, in experiment [2], the “alfa-glucosidase inhibitory activity (in words)” value was “particularly strong activity”. The IC50 in experiment [2] (37° C., 5 minutes incubation) is 196 µM.
For `O=C(O[C@@H]1Cc2c(O)cc(O)cc2O[C@@H]1c1cc(O)c(=O)c2c(O)c(O)ccc2c1)c1cc(O)c(O)c(O)c1` [Compound 15, EGCG-catechol], in experiment [3], the “Lipase inhibitory activity (in words, compared with EGCG)” value is “stronger activity than a positive control, EGCG” and the IC50 came to 0.104 µM. In experiment [2] (37° C., 5 minutes incubation), this compound had an IC50 of 103 µM.
Take `Oc1cccc(O)c1O` [pyrogallol, reference compound]: the IC50 in experiment [1] (setting [4]) came out at 17.3 µM.
For the compound “(−)-epigallocatechin-3-O-gallate [Compound 13, reference compound]”, the IC50 in experiment [1] (setting [4]) is 0.349 µM; in experiment [3], 0.349 µM; in experiment [2] (37° C., 5 minutes incubation) it was 485 µM.
Turning to “epitheaflagallin [Compound 3, reference compound]”, the IC50 in experiment [3] was determined as 0.956 µM. Besides, in experiment [2] (37° C., 5 minutes incubation), the “alfa-glucosidase inhibitory activity IC50” value is “No”.

The IC50 is the midpoint of a concentration-inhibition curve.
